Results as given in patent publication US7678365B2, “Disinfecting oral rinse compositions and process for using the same” (priority 2001, dated 2010).

Experiments:
[1] = Acid ionization constants and lactic acid/lactate speciation; assay type: physicochemical
Description: […]. When citric acid is used as the supplemental acid, less total acid is required to achieve a desired pH than, say, when using malic acid, which is half the strength of citric (Ka1 of citric is 8.2×10^−4 vs. 3.9×10^−4 for malic acid). Thus a smaller amount of lactic acid is used when it represents, say, 10% of a lactic/citric combination than a lactic/malic combination; […]. In certain embodiments, the metal lactate in these compositions is an alkali, an alkaline earth lactate, or a heavier metal lactate. […]. Useful alkaline earth metal lactates include magnesium and calcium lactate. Available heavier metal lactates are ferrous and aluminum lactates, although the cation flavor is intrusive. […]. At pH 2.5 96% of the two lactic species exist as lactic acid, which drops to 70% at pH 3.5. […].
The acid and chlorite solutions had first been equilibrated at 37° C., to simulate body temperature. The solution pHs, in both cases, were 3.0. After 10 minutes, the solution Absorbance values were measured at a wavelength of 360 nm in a spectrophotometer, and the concentration of chlorine dioxide (ClO2) then calculated, using the molar extinction coefficient of 1,242 liter/mole.cm. […]

E. coli = assay: AOAC Germicidal Test procedure; assay type: cell-based; conditions: for E. coli organisms destroyed/killed: initial inoculum of E. coli 7.63 logs10/ml, equimolar amounts of the unionized acid form
Description: […]. […] […].

Compound | fraction of the two lactic species existing as lactic acid ([1]; pH 2.5) | fraction of the two lactic species existing as lactic acid ([1]; pH 3.5) | fraction of the two lactic species existing as lactic acid ([1]; pH 4.0) | E. coli organisms destroyed/killed (E. coli) | residual E. coli organisms per ml after disinfection, malic acid-treated relative to lactic acid-treated suspension (E. coli; malic acid vs lactic acid)
CC(O)C(=O)O (stereo not drawn) [lactic acid] | 96% | 70% | 42% | 4.15 logs10/ml | 
O=C(O)CC(O)C(=O)O (stereo not drawn) [malic acid] |  |  |  | 1.45 logs10/ml | ~1500 times
